# Source: US8039513B2, “Cis-1,2-substituted stilbene derivatives and their use in preparation of drugs for treatment and/or prevention of diabetes” (Institute of Radiation Medicine, Academy of Military …, priority 2004, dated 2011)
# Assays:
# [1] = system: mice with glucose-induced hyperglycemia; test: Hypoglycemic effect of orally administered compounds in mice with glucose-induced hyperglycemia; assay type: in vivo, Kun Ming male mice; details: glucose 2 g/10 ml/kg orally 15 min later, fasted mice
# Protocol: In the following biological experiments, the hypoglycemic activity of the above compounds was chiefly observed in hyperglycemic mice. Taking 3,3′,5′-trihydroxy-4′-methoxystilbene-3-O-β-D-glucoside (rhaponticin) as a positive control drug, the hypoglycemic activity of these compounds were preliminarily evaluated.
# Kun Ming male mice (certification: Medical Animal No. D01-3023) with body weight of 21-33 g were used in the experiments. After fasting and feeding water for 16 hours, the compounds were administered to the mice. The candidate compounds were formulated with dimethyl sulfoxide (2.5 ml/kg), and administered to the mice intragastrically. After fifteen minutes, glucose (2 g/10 ml/kg) was administered orally. One hour later, one drop of blood was collected by cutting a segment of tail and the blood sugar level was monitored with a blood sugar monitor manufactured by Johnson Company, USA, by using a test paper containing glucose oxidase. For the mice of the control group, dimethyl sulfoxide ([…]) and glucose (2 g/10 ml/kg) were given intragastrically.
# [2] = Table 1, 400 mg/kg intragastrically, DMSO control 9.50 ± 1.06
# [3] = Table 2, 400 mg/kg intragastrically, DMSO control 8.53 ± 0.76
# [4] = Table 3, 400 mg/kg intragastrically, DMSO control 7.80 ± 1.33
structure (smiles),measurement,setting,value
"COc1cc(/C=C\c2ccccc2)ccc1O [Example 1, cis-1-phenzyl-2-(3′-methoxy-4′-hydroxy-phenyl)ethene]",Blood sugar level one hour after administration M ± SD,[1]; [2],7.62 ± 1.59 mmol/L
"COc1ccc(/C=C(/C(=O)O)c2ccccc2)cc1OC(C)=O [Example 2, cis-2-phenyl-3-(3′-acetoxy-4′-methoxy-phenyl)acrylic acid]",Blood sugar level one hour after administration M ± SD,[1]; [2],8.20 ± 0.99 mmol/L
"COc1cc(/C=C(/C(=O)O)c2ccccc2)ccc1OC(C)=O [Example 3, cis-2-phenyl-3-(3′-methoxy-4′-acetoxy-phenyl)acrylic acid]",Blood sugar level one hour after administration M ± SD,[1]; [2],7.30 ± 0.68 mmol/L
same,Blood sugar level one hour after administration M ± SD,[1]; [3],7.85 ± 0.16 mmol/L
"COc1cc(/C=C(/C(=O)O)c2ccccc2)ccc1O [Example 4, cis-2-phenyl-3-(3′-methoxy-4′-hydroxy-phenyl)acrylic acid]",Blood sugar level one hour after administration M ± SD,[1]; [3],7.30 ± 2.21 mmol/L
"COc1ccc(/C=C(/C(=O)O)c2ccccc2)cc1C(=O)O [Example 5, cis-2-phenyl-3-(3′-carboxy-4′-methoxy-phenyl)acrylic acid]",Blood sugar level one hour after administration M ± SD,[1]; [3],8.50 ± 1.01 mmol/L
"COc1cc(/C=C(/C(=O)NC2CCCCC2)c2ccccc2)ccc1OC(C)=O [Example 6, cis-2-phenyl-3-(3-methoxy-4′-acetoxy-phenyl)-N-cyclohexyl acrylamide]",Blood sugar level one hour after administration M ± SD,[1]; [3],5.46 ± 0.86 mmol/L
"COc1cc(C=C(C(=O)NCc2ccco2)c2ccccc2)ccc1OC(C)=O [Example 7, cis-2-phenyl-3-(3′-methoxy-4′-acetoxy-phenyl)-N-(methylenefuran)acrylamide]",Blood sugar level one hour after administration M ± SD,[1]; [4],6.95 ± 0.61 mmol/L
"COc1cc(C=C(C(=O)N[C@H]2CC[C@@H](C)CC2)c2ccccc2)ccc1OC(C)=O [Example 8, cis-2-phenyl-3-(3′-methoxy-4′-acetoxy-phenyl)-N-(4-methylcyclohexyl)acrylamide]",melting point,,136 to 140 °C
same,Blood sugar level one hour after administration M ± SD,"[1]; Table 3, 100 mg/kg intragastrically, DMSO control 7.80 ± 1.33",5.61 ± 1.67 mmol/L
"COC(=O)/C(=C/c1ccc(OC)c(OC)c1)c1ccccc1 [Example 9, cis-2-phenyl-3-(3′,4′-dimethoxy-phenyl)-methyl acrylate]",Blood sugar level one hour after administration M ± SD,[1]; [4],8.41 ± 0.88 mmol/L
"COc1ccc(/C=C/c2cc(O)cc(O[C@@H]3O[C@H](CO)[C@@H](O)[C@H](O)[C@H]3O)c2)cc1O [rhaponticin, 3,3′,5′-trihydroxy-4′-methoxystilbene-3-O-β-D-glucoside, reference compound]",Blood sugar level one hour after administration M ± SD,[1]; [2],9.14 ± 1.90 mmol/L
same,Blood sugar level one hour after administration M ± SD,"[1]; Table 1, 800 mg/kg intragastrically, DMSO control 9.50 ± 1.06",7.02 ± 1.01 mmol/L
